Measured values published in patent US10729135B2, “Methods of controlling pests using terpendoles” (priority 2017, dated 2020).

System: green peach aphids (Myzus persicae)
Experiment: LC50 biological efficacy assay on green peach aphids, aerosolized dilutions on infested radish leaves
Type: in vivo
Settings: for LC50: concentration for 50% control over 24-48 hours, infested radish leaves, 500 μl aerosolized dilution; for control of green peach aphids (in words): summary of Table 1
Protocol: Biological efficacy assays utilizing terpendoles were conducted on green peach aphids (Myzus persicae). Specifically, terpendole A, terpendole C, terpendole J, terpendole K, terpendole N, terpendole O and terpendole P were each separately applied in serial dilutions to determine the concentration at which 50% control of green peach aphids occurred over a period of 24-48 hours (“LC50”). Radish leaves infested with green peach aphids were treated, top and bottom, with a total of 500 μl of an aerosolized terpendole dilution. Treated, aphid infested leaves were held in greenhouse conditions and evaluated for efficacy at 24 and 48 h.

| SMILES | LC50 | control of green peach aphids (in words) |
| --- | --- | --- |
| CC1(C)OC1[C@H]1O[C@H]2[C@H]3O[C@@]34[C@H](CC[C@@]3(C)[C@@]4(O)CC[C@H]4Cc5c([nH]c6ccccc56)[C@@]43C)O[C@@H]2C(C)(C)O1 (stereo partly drawn) [Terpendole A, terpendole A] | 7 ppm | effectively controlled |
| CC(C)=C[C@H]1O[C@H]2[C@H]3O[C@@]34C(=CC[C@@]3(C)[C@@]4(O)CC[C@H]4Cc5c([nH]c6ccccc56)[C@@]43C)O[C@@H]2C(C)(C)O1 [Terpendole K, terpendole K] | 44 ppm | effectively controlled |
| CC(C)=CCc1ccc2c3c([nH]c2c1)[C@@]1(C)[C@@H](CC[C@@]2(O)[C@@]45O[C@@H]4[C@@H]4O[C@H](C6OC6(C)C)OC(C)(C)[C@H]4O[C@H]5CC[C@@]21C)C3 (stereo partly drawn) [Terpendole P, terpendole P] | 67 ppm | effectively controlled |
| CC(C)=C[C@@H]1O[C@H]2[C@@H](O[C@@H]3CC[C@]4(C)[C@](O)(CC[C@H](CC5(O)C(=O)Nc6cccc(CC7OC7(C)C)c65)[C@@]4(C)O)[C@@]34O[C@@H]24)C(C)(C)O1 (stereo partly drawn) [Terpendole N, terpendole N] | 4 ppm | effectively controlled |
| CC(C)=CCOC(C)(C)[C@H]1O[C@H]2CC[C@@]3(C)[C@@](O)(CC[C@H]4Cc5c([nH]c6ccccc56)[C@@]43C)[C@]23O[C@@H]3[C@@H]1O [Terpendole J, terpendole J] | 5,183 ppm | effectively controlled |
| CC(C)=CCc1cccc2[nH]c3c(c12)C[C@@H]1CC[C@@]2(O)[C@@]45O[C@@H]4[C@@H]4O[C@H](C6OC6(C)C)OC(C)(C)[C@H]4O[C@H]5CC[C@]2(C)[C@@]31C (stereo partly drawn) [Terpendole O, terpendole O] | 105 ppm | effectively controlled |
